In ChEMBL document CHEMBL5154929, “Optimization of the Natural Product Calothrixin A to Discover Novel Dual Topoisomerase I and II Inhibitors with Improved Anticancer Activity” (J Med Chem, 2022):
pIC50: −log10 of the molar value.

Key:
[1] = tested on: MCF7; test: Cytotoxicity against human MCF7 cells expressing high level of topoisomerase I/II measured after 72 hrs by MTT assay; format: functional, cell-based; details: MCF7, 72 h
[2] = Cytotoxicity against human HEK293T cells measured after 72 hrs by MTT assay; format: toxicity, cell-based, HEK-293T
[3] = tested on: HCT-116; test: Cytotoxicity against human HCT-116 cells expressing high level of topoisomerase I/II measured after 72 hrs by MTT assay; format: functional, cell-based; details: HCT-116, 72 h
[4] = Cytotoxicity against human L02 cells measured after 72 hrs by MTT assay; format: toxicity, cell-based
[5] = tested on: MDA-MB-231; test: Cytotoxicity against human MDA-MB-231 cells expressing high level of topoisomerase I/II measured after 72 hrs by MTT assay; format: functional, cell-based; details: MDA-MB-231, 72 h
[6] = tested on: SH-SY5Y; test: Cytotoxicity against human SH-SY5Y cells expressing low level of topoisomerase I/II measured after 72 hrs by MTT assay; format: functional, cell-based
[7] = tested on: A549; test: Cytotoxicity against human A549 cells expressing high level of topoisomerase I/II measured after 72 hrs by MTT assay; format: functional, cell-based; details: A549, 72 h
[8] = tested on: A-375; test: Cytotoxicity against human A-375 cells expressing high level of topoisomerase I/II measured after 72 hrs by MTT assay; format: functional, cell-based; details: A-375, 72 h

| Compound | pIC50 [1] | IC50 at 72 h [2] [µM] | pIC50 [3] | IC50 at 72 h [4] [µM] | pIC50 [5] | pIC50 [6] | pIC50 [7] | pIC50 [8] |
| --- | --- | --- | --- | --- | --- | --- | --- | --- |
| CCOC(=O)[C@@H]1OC(C)(C)O[C@H]1Cn1cc(Cn2c3c(c4ccccc42)C(=O)c2c[n+]([O-])c4ccccc4c2C3=O)nn1 | < 6.00 | 0.13 | 6.11 | 0.84 | 5.98 | < 6.00 | < 6.00 | 6.24 |
| O=C1c2c[n+]([O-])c3ccccc3c2C(=O)c2c1c1ccccc1n2CCCCN1CCN(CCO)CC1 | 6.42 |  | 6.48 | 0.88 | 6.13 | 6.35 | 6.70 | 6.33 |
| CN(C)CCCn1c2c(c3ccccc31)C(=O)c1c[n+]([O-])c3ccccc3c1C2=O | 6.62 | 0.13 | 6.46 | 0.49 | 6.31 | 6.48 | 6.51 | 6.39 |
| O=C1c2c[n+]([O-])c3ccccc3c2C(=O)c2c1c1ccccc1n2CCN1CCCC1 | 6.49 |  | 6.57 | 0.93 | 6.20 | 6.28 | 6.39 | 6.37 |
| CC(=O)OC[C@H]1O[C@@H](n2cc(Cn3c4c(c5ccccc53)C(=O)c3c[n+]([O-])c5ccccc5c3C4=O)nn2)[C@H](OC(C)=O)[C@@H](OC(C)=O)[C@@H]1OC(C)=O | 6.48 | 2.43 | 6.12 | 0.27 | 6.40 | 6.19 | 6.54 | 6.25 |
| CC1(C)O[C@@H](CO)[C@H](Cn2cc(Cn3c4c(c5ccccc53)C(=O)c3c[n+]([O-])c5ccccc5c3C4=O)nn2)O1 | 6.16 | 0.12 | 6.89 | 0.5 | 6.17 | < 6.00 | 6.43 | 6.72 |
| O=C1c2c[n+]([O-])c3ccccc3c2C(=O)c2c1c1ccccc1n2CCN1CCCCC1 | 6.21 |  | 6.11 | 1.05 | 5.98 | 5.73 | 5.97 | 6.74 |
| CCCN1CCN(CCCCn2c3c(c4ccccc42)C(=O)c2c[n+]([O-])c4ccccc4c2C3=O)CC1 | 5.89 |  | 6.10 | 6.83 | 5.53 | 5.40 | 6.49 | 6.06 |
| CN(C)CCCCCn1c2c(c3ccccc31)C(=O)c1c[n+]([O-])c3ccccc3c1C2=O | 6.70 | 0.07 | 6.33 | 0.24 | 6.62 | 6.43 | 6.68 | 6.25 |
| O=C1c2c[n+]([O-])c3ccccc3c2C(=O)c2c1c1ccccc1n2Cc1cn(CC(O)CO)nn1 (stereo not drawn) | 5.95 | 0.76 | 6.60 | 1.07 | 5.89 | < 6.00 | 6.06 | 6.36 |
| CC1(C)OC[C@@H](Cn2cc(Cn3c4c(c5ccccc53)C(=O)c3c[n+]([O-])c5ccccc5c3C4=O)nn2)O1 | < 6.00 | 6.02 | 6.47 | 2.9 | < 6.00 | < 6.00 | 5.33 | 6.35 |
| CC(=O)OC[C@@H]1OC(C)(C)O[C@H]1Cn1cc(Cn2c3c(c4ccccc42)C(=O)c2c[n+]([O-])c4ccccc4c2C3=O)nn1 | < 6.00 | 10.2 | 6.24 | 1.06 | < 6.00 | < 6.00 | < 6.00 | 6.37 |
| CC1(C)OCC(Cn2cc(Cn3c4c(c5ccccc53)C(=O)c3c[n+]([O-])c5ccccc5c3C4=O)nn2)O1 (stereo not drawn) | 6.54 | 5.51 | 7.15 | 0.12 | 6.64 | 6.64 | 7.10 | 6.48 |
| CCCCN1CCN(CCCCn2c3c(c4ccccc42)C(=O)c2c[n+]([O-])c4ccccc4c2C3=O)CC1 | 5.16 |  | 5.72 | 5.69 | 6.05 | 5.21 | 6.26 | 5.67 |
| CC[C@@]1(O)C(=O)OCc2c1cc1n(c2=O)Cc2cc3ccccc3nc2-1 [CAMPTOTHECIN] | 6.46 | 0.69 | 6.22 | 0.14 | 6.31 | 6.21 | 6.43 | 6.18 |
| O=C1c2c[n+]([O-])c3ccccc3c2C(=O)c2c1c1ccccc1n2CCCCN1CCOCC1 | 6.89 |  | 7.05 | 0.51 | 6.62 | 6.77 | 7.05 | 6.77 |
| CC1(C)OC[C@H](Cn2cc(Cn3c4c(c5ccccc53)C(=O)c3c[n+]([O-])c5ccccc5c3C4=O)nn2)O1 | 6.28 | 0.1 | 6.89 | 0.47 | 6.28 | 6.09 | 6.47 | 6.74 |
| O=C1c2c[n+]([O-])c3ccccc3c2C(=O)c2c1c1ccccc1n2CCN1CCOCC1 | 5.76 |  | 5.89 | 1.73 | 5.69 | 5.69 | 6.25 | 6.09 |
| CN(C)CCn1c2c(c3ccccc31)C(=O)c1c[n+]([O-])c3ccccc3c1C2=O | 6.70 |  | 6.96 | 0.75 | 6.80 | 6.77 | 6.70 | 6.85 |
| O=C1c2c[n+]([O-])c3ccccc3c2C(=O)c2c1c1ccccc1n2CCCCN1CCCCC1 | 6.82 |  | 6.70 | 0.61 | 6.21 | 6.64 | 6.82 | 6.72 |
| O=C1c2c[n+]([O-])c3ccccc3c2C(=O)c2c1c1ccccc1n2CCCN1CCC(O)CC1 | 6.72 | 0.17 | 6.72 | 0.12 | 6.55 | 6.89 | 6.46 | 6.62 |
| O=C1c2c[n+]([O-])c3ccccc3c2C(=O)c2c1c1ccccc1n2CCCN1CCOCC1 | 6.35 | 0.17 | 6.39 | 0.55 | 6.26 | 6.23 | 6.40 | 6.48 |
| CN1CCN(CCCn2c3c(c4ccccc42)C(=O)c2c[n+]([O-])c4ccccc4c2C3=O)CC1 | 6.66 | 0.17 | 6.25 | 0.23 | 6.41 | 6.25 | 6.85 | 6.33 |
| O=C1c2c[n+]([O-])c3ccccc3c2C(=O)c2c1c1ccccc1n2Cc1cn(C[C@@H](O)CO)nn1 | 6.22 | 2.03 | 6.72 | 0.49 | 6.17 | < 6.30 | 6.41 | 6.85 |
